According to PMC5675120 (Nature chemical biology, 2017):
Where no end group is shown, it is not given here. The star is where a group is joined. FITC = O=C1OC2(c3ccc(O)cc3Oc3cc(O)ccc32)c2ccc(NC(=S)*)cc21

Tests used:
BAX = BAX (Homo sapiens, UniProt Q07812); assay: STD NMR; assay type: binding
[1] = target: T1, BCL-2-associated X protein (BAX), recombinant, full-length, monomeric (human, UniProt Q07812 1-192); assay: competition STD NMR
[2] = target: T1, BCL-2-associated X protein (BAX), …; assay: fluorescence polarisation

Sequence of BAX (Q07812 whole entry): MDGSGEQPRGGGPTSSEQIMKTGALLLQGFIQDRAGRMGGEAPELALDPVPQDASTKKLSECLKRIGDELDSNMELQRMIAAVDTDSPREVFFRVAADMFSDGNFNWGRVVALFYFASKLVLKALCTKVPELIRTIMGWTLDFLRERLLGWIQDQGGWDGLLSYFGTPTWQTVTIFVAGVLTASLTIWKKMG
T1 sequence (Q07812 whole entry): as above

Molecule	STD NMR; liposomal release sensitization (BAX)	other results
Oc1cccc(Oc2ccccc2)c1 [compound 2, 3-phenoxyphenol]	all retain BAX-binding activity as assessed by STD NMR, and demonstrate BAX-sensitization activity	
Oc1ccc(Cc2ccccc2)cc1 [compound 3, 4-benzylphenol]	all retain BAX-binding activity as assessed by STD NMR, and demonstrate BAX-sensitization activity	
Nc1ccc(Oc2ccccc2)cc1 [compound 4, 4-phenoxyaniline]	all retain BAX-binding activity as assessed by STD NMR, and demonstrate BAX-sensitization activity	
EALKKALRRHRFLWQRRQRA [vMIA peptide (aa 131-150), as used in competition STD NMR]		binding result [1]: binds
{FITC}-EALKKALRRHRFLWQRRQRA [FITC-vMIA peptide (aa 131-150)]		binding result [2]: binds
